The text below walks through data of patent US20250032456A1, “USE OF L-ERGOTHIONEINE TO AMELIORATE AND PREVENT AGE-RELATED VITREOUS DEGENERATION” (NANJING NUTRABUILDING BIO-TECH CO., LTD., priority 2021, published 2025).

Assay [1] deals with Reactive oxygen species (ROS) of rabbits' lens. As to the kind of experiment: Reactive oxygen species quantified by fluorescence spectroscopy using 2',7'-dichlorofluorescein diacetate. The format is in vivo, rabbit. The note with it: 2 or 10 mg/kg/d by gavage for 7 months; compared with non-supplement group, ***p<0.001. The procedure:
(§1) Fifteen young pigmented rabbits weighing 2.3-4.1 kg and aging 2.5-3 years were used in this experiment. At the onset of the investigation, each eye of every rabbit was examined by slit-lamp biomicroscopy and +60 diopter fundus lens through dilated pupils (2% atropine eye drops) to exclude any preexisting abnormalities. After slit-lamp examination, one drop of 0.5% proparacaine hydrochloride was applied for topic anesthesia, and then 0.1 ml of riboflavin (2×10^^−4 M) was injected through a Millipore filter unit into the central vitreous of both eyes, using a 30-gauge needle. All eyes were then irradiated with white light (1.06×10^15 photons sec-1 cm-2) generated by a carousel slide projector without a lens at a distance of 60 cm for 6 hours. During irradiation, the exposed eyes were frequently treated with topical balanced salt solution (BSS) to prevent corneal drying. […]
Antioxidant capacity of the lens was measured using an assay based on the ability of the sample to inhibit the oxidation of 2,2′-azino-di-[3-ethylbenzthiazoline sulfonate]+ (ABTS) by metmyoglobin. The amount of ABTS+ produced was measured in terms of the decrease in absorbance caused by the antioxidants in the sample. Reactive oxygen species (ROS) were quantified by fluorescence spectroscopy using 2′,7′-dichlorofluorescein diacetate.

The test system of assay [2] is rabbits' vitreous gel. The assay is described as follows: Slit-lamp biomicroscopy of vitreous structure in rabbits with riboflavin/white-light induced vitreous liquefaction. Format: in vivo, rabbit. The note with it: 2 or 10 mg/kg/d by gavage once daily for 7 months, especially in higher dose. The procedure: as §1, with “drying. Their eyes were examined by using slit-lamp biomicroscopy next day, to confirm if they have serious vitreous liquefaction. They were randomly divided into three groups: (1) non-supplement group (Con, n=5); (2) L-ergothioneine supplement group with low dosage (L-ergothioneine, 2 mg/kg/d, n=5); (3) L-ergothioneine supplement group with high dosage (L-ergothioneine, 10 mg/kg/d, n=5). Some […] were administered L-ergothioneine once daily by gavage in normal saline solution for 7 months.” for “drying.”

Assay [3] deals with rabbits' vitreous gel. The assay is described as follows: Vitreous gel content by gel-liquid separation of rabbit vitreous samples. The settings on record: 2 or 10 mg/kg/d by gavage for 7 months; compared with non-supplement group, ***p<0.001. Format: in vivo. On the procedure: Fifteen young pigmented rabbits weighing 2.3-4.1 kg and aging 2.5-3 years were used in this experiment. At the onset of the investigation, each eye of every rabbit was examined by slit-lamp biomicroscopy and +60 diopter fundus lens through dilated pupils (2% atropine eye drops) to exclude any preexisting abnormalities. After slit-lamp examination, one drop of 0.5% proparacaine hydrochloride was applied for topic anesthesia, and then 0.1 ml of riboflavin (2×10^^−4 M) was injected through a Millipore filter unit into the central vitreous of both eyes, using a 30-gauge needle. All eyes were then irradiated with white light (1.06×10^15 photons sec-1 cm-2) generated by a carousel slide projector without a lens at a distance of 60 cm for 6 hours. During irradiation, the exposed eyes were frequently treated with topical balanced salt solution (BSS) to prevent corneal drying. Their eyes were examined by using slit-lamp biomicroscopy next day, to confirm if they have serious vitreous liquefaction. […] The weight of the vitreous gel was determined, and its percentage was calculated as follows: vitreous gel (%)=(separated vitreous gel wet wt (g)/initial vitreous wet wt (g))×100%.

On to `C[N+](C)(C)[C@@H](Cc1c[nH]c(=S)[nH]1)C(=O)[O-]` [L-ergothioneine], for which the “ROS value of rabbits' lens (FIG. 2)” value in assay [1] is “could scavenge chronic ROS directly and radically”. The “rabbits' vitreous gel observed microscopically (slit-lamp biomicroscopy)” value in the assay with rabbits' vitreous gel [2] is “significantly increased”. Moreover, in the assay with rabbits' vitreous gel [3], the “vitreous gel content (%) of the rabbits' eye (FIG. 1)” value was “could alleviate vitreous depolymerization and liquefaction”.
